Measured values: patent US20040076683A1, “Stealth lipid nanocapsules, methods for the preparation thereof, and use thereof as a carrier for active principle(s)” (ETHYPHARM, priority 2002, published 2004)

Assay: Solubility of paclitaxel and docetaxel in triglycerides
Format: physicochemical
Conditions: dissolved at 75 °C, no recrystallization at room temperature
Method: A solution of docetaxel or paclitaxel in triglycerides, which will constitute the inner core of the lipid nanocapsules, is prepared by dissolving the drug into the triglyceride at 75° C. The amount of drug is adjusted in order to obtain solutions that will not recrystallize upon cooling to room temperature.

[1] = in Labrafac CC (C8 content 56.7%)
[2] = in Miglyol 810 N (C8 content 70.4%)

Solubility (% w/w) [1] [% w/w]	Solubility (% w/w) [2] [% w/w]	Solubility (% w/w) (in Tricaprylin (C8 >99%))	SMILES
1.6	2.7	6	CC(=O)O[C@H]1C(=O)[C@@]2(C)[C@H]([C@H](OC(=O)c3ccccc3)[C@]3(O)C[C@H](OC(=O)[C@H](O)[C@@H](NC(=O)c4ccccc4)c4ccccc4)C(C)=C1C3(C)C)[C@]1(OC(C)=O)CO[C@@H]1C[C@@H]2O [Paclitaxel, paclitaxel]
2	3.9	7	CC(=O)O[C@@]12CO[C@@H]1C[C@H](O)[C@@]1(C)C(=O)[C@H](O)C3=C(C)[C@@H](OC(=O)[C@H](O)[C@@H](NC(=O)OC(C)(C)C)c4ccccc4)C[C@@](O)([C@@H](OC(=O)c4ccccc4)[C@H]21)C3(C)C [Docetaxel, docetaxel]
